Laboratory results reported in patent publication US20160289186A1, “FLUOROMETHYL-SUBSTITUTED PYRROLE CA[…]” (Grunenthal GmbH, priority 2013, published 2016).

Target: T1, Human CaV2.2 channels (Homo sapiens, UniProt Q00975)
T1 construct: expressed in transfected cells; host or cells: HEK293
Assay: Fluorescent (FLIPR) assay for CaV2.2 channels using potassium depolarization to induce channel opening
Format: cell-based
Conditions: 3 μM compound; 30 mM KCl assay buffer (inactivated channel state); HEK293 cells stably expressing human CaV2.2; read-out: Activity Category: %-Inhib (CaV2.2) @3 μM @30 mM KCl
Outline: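 HEK293 cells stably co-expressing human CaV2.2 with α2δ and β subunits plus Kir2.3, Fluo-4 loaded; compounds preincubated 15 min at 25 °C in 1 mM or 30 mM KCl buffer (inactivated state), pH 7.4. Depolarized by KCl addition; baseline-normalized peak fluorescence (ex 480/em 535 nm) gave inhibition.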

T1 sequence (Q00975 whole entry): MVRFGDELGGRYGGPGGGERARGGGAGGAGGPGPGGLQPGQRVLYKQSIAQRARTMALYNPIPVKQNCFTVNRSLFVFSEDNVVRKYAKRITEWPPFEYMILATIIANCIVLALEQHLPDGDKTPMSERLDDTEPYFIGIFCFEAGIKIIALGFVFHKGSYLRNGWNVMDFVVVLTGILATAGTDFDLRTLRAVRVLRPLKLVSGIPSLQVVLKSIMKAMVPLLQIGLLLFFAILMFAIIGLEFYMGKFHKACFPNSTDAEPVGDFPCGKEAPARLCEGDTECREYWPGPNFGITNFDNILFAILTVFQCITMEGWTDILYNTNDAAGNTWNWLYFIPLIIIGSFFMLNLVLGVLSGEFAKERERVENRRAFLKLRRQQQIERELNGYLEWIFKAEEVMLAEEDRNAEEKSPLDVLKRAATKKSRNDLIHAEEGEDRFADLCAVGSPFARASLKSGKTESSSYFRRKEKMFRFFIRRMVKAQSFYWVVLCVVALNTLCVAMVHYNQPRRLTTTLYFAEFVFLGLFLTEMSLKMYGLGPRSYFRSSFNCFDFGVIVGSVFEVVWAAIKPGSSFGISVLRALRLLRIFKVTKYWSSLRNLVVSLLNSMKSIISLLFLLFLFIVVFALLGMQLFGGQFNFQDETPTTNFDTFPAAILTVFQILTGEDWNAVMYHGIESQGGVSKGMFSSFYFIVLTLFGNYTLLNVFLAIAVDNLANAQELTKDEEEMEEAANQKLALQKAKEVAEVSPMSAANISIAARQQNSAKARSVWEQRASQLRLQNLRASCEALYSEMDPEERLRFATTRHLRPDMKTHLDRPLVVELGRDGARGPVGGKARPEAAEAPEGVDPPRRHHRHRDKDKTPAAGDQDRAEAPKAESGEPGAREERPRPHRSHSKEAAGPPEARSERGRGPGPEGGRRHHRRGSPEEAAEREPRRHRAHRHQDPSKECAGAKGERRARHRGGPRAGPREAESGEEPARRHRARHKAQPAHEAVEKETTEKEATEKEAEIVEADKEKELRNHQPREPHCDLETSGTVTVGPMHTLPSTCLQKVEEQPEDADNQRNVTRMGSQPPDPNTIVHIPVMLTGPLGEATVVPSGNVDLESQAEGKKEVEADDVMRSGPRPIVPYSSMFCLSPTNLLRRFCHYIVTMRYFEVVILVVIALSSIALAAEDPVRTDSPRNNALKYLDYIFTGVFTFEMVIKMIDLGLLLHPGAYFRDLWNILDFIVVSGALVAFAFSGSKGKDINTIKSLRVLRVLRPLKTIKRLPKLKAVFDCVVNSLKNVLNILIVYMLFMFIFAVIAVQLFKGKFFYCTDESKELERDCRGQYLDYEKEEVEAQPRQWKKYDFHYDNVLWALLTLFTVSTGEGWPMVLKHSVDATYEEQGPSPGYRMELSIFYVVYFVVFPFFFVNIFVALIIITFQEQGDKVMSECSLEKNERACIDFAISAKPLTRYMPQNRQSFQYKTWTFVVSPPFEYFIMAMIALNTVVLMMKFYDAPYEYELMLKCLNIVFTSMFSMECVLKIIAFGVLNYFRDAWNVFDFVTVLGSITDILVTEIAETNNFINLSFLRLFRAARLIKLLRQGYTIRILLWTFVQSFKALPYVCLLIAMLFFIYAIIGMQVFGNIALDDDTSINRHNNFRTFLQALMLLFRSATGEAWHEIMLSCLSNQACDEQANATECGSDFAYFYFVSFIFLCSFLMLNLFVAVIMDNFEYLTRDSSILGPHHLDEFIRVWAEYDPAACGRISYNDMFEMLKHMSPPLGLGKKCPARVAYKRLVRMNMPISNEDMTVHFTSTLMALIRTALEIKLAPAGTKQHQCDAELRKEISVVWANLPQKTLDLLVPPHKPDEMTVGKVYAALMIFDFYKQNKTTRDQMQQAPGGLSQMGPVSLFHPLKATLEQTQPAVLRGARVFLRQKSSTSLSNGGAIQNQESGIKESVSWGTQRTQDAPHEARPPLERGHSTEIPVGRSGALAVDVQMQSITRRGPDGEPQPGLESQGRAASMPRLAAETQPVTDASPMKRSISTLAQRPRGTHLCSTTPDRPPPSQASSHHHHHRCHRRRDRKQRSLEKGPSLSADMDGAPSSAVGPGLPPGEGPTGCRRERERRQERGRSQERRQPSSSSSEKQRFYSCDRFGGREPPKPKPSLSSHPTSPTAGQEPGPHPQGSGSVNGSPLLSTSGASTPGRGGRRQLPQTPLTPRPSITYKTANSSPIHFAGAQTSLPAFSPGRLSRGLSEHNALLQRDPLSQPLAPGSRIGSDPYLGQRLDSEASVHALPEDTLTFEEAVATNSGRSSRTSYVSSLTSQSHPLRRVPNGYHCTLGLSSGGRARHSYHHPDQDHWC
T1 sequence (P54284 whole entry, further chain): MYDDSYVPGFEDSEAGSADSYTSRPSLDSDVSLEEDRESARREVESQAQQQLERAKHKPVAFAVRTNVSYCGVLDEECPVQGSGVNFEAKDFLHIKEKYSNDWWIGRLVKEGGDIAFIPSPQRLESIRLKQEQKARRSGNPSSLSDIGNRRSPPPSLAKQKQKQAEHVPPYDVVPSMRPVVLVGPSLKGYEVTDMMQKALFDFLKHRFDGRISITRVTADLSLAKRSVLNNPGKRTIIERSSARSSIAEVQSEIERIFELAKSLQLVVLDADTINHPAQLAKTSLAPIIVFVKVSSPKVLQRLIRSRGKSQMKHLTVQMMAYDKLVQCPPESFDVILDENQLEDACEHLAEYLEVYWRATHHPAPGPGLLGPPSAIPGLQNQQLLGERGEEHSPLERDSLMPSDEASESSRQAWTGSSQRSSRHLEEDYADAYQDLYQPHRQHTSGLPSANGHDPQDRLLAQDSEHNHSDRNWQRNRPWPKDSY
T1 sequence (P54289 25-1103, further chain): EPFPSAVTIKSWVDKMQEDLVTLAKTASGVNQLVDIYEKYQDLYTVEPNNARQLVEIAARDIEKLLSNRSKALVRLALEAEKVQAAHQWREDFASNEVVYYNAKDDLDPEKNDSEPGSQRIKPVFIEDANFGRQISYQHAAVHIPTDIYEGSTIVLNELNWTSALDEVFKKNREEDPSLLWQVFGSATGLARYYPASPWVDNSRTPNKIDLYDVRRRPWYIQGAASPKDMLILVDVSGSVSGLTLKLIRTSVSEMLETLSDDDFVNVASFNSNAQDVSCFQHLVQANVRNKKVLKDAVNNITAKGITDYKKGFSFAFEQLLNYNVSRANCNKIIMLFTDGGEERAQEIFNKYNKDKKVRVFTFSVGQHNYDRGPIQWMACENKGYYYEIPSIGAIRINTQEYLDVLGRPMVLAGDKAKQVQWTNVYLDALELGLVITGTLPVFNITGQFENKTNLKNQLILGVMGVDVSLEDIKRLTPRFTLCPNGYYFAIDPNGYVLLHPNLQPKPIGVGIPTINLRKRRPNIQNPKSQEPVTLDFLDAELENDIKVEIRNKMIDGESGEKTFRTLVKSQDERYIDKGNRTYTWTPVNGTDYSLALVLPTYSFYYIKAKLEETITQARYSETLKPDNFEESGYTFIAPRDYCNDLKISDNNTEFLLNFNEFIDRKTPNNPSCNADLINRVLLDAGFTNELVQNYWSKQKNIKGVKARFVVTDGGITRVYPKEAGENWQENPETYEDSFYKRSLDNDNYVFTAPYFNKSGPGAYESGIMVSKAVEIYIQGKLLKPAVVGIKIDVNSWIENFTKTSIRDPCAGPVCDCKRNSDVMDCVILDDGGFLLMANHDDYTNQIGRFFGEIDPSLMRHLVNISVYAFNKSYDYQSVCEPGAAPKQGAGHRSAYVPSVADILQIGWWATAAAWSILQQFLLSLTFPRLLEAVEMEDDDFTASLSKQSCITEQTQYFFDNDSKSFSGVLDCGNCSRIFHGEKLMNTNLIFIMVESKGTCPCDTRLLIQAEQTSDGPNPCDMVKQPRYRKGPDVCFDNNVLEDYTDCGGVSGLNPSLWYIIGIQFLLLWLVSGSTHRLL

SMILES | inhibition at 3 µM
Cc1c(-c2ccc(Cl)cn2)c(C(=O)N(C)CCS(C)(=O)=O)n(C(C)C)c1C(F)(F)F [Example 118, 3-(5-Chloro-pyridin-2-yl)-1-isopropyl-N,4-dimethyl-N-(2-methylsulfonyl-ethyl)-5-(trifluoromethyl)-1H-pyrrole-2-carboxylic acid amide] | 40 to 75%
Cc1c(-c2ccc(Cl)cn2)c(C(=O)N(C)C2CCNC2=O)n(C(C)C)c1C(F)(F)F (stereo not shown) [Example 119, 3-(5-Chloro-pyridin-2-yl)-1-isopropyl-N,4-dimethyl-N-(2-oxo-pyrrolidin-3-yl)-5-(trifluoromethyl)-1H-pyrrole-2-carboxylic acid amide] | 40 to 75%
Cc1c(-c2ccc(Cl)cn2)c(C(=O)N(C)C(C)C)n(C(C)C)c1C(F)(F)F [Example 120, 3-(5-Chloro-pyridin-2-yl)-N,1-diisopropyl-N,4-dimethyl-5-(trifluoromethyl)-1H-pyrrole-2-carboxylic acid amide] | 75 to 95%
Cc1c(-c2ncc(Cl)cn2)c(C(=O)N2CCOC(C)(C)C2)n(C(C)C)c1C(F)(F)F [Example 121, [3-(5-Chloro-pyrimidin-2-yl)-1-isopropyl-4-methyl-5-(trifluoromethyl)-1H-pyrrol-2-yl]-(2,2-dimethyl-morpholin-4-yl)-methanone] | 40 to 75%
Cc1c(-c2ncc(Cl)cn2)c(C(=O)N(C)Cc2ccnn2C)n(C(C)C)c1C(F)(F)F [Example 122, 3-(5-Chloro-pyrimidin-2-yl)-1-isopropyl-N,4-dimethyl-N-[(2-methyl-2H-pyrazol-3-yl)-methyl]-5-(trifluoromethyl)-1H-pyrrole-2-carboxylic acid amide] | 40 to 75%
Cc1cc(CN(C)C(=O)c2c(-c3ncc(Cl)cn3)c(C)c(C(F)(F)F)n2C(C)C)no1 [Example 123, 3-(5-Chloro-pyrimidin-2-yl)-1-isopropyl-N,4-dimethyl-N-[(5-methyl-isoxazol-3-yl)-methyl]-5-(trifluoromethyl)-1H-pyrrole-2-carboxylic acid amide] | 75 to 95%
Cc1c(-c2ncc(Cl)cn2)c(C(=O)N(C)CC(C)(C)C#N)n(C(C)C)c1C(F)(F)F [Example 126, 3-(5-Chloro-pyrimidin-2-yl)-N-(2-cyano-2-methyl-propyl)-1-isopropyl-N,4-dimethyl-5-(trifluoromethyl)-1H-pyrrole-2-carboxylic acid amide] | 40 to 75%
Cc1c(-c2ncc(Cl)cn2)c(C(=O)N(C)CCS(C)(=O)=O)n(C(C)C)c1C(F)(F)F [Example 127, 3-(5-Chloro-pyrimidin-2-yl)-1-isopropyl-N,4-dimethyl-N-(2-methylsulfonyl-ethyl)-5-(trifluoromethyl)-1H-pyrrole-2-carboxylic acid amide] | 30 to 40%
Cc1c(-c2ncc(Cl)cn2)c(C(=O)N(C)C(C)C)n(C(C)C)c1C(F)(F)F [Example 128, 3-(5-Chloro-pyrimidin-2-yl)-N,1-diisopropyl-N,4-dimethyl-5-(trifluoromethyl)-1H-pyrrole-2-carboxylic acid amide] | 40 to 75%
Cc1c(-c2ccc(Cl)cn2)c(C(=O)N2CCN(C(=O)NC(C)(C)C)CC2)n(C(C)C)c1C(F)(F)F [Example 129, N-tert-Butyl-4-[3-(5-chloro-pyridin-2-yl)-1-isopropyl-4-methyl-5-(trifluoromethyl)-1H-pyrrole-2-carbonyl]-piperazine-1-carboxylic acid amide] | 75 to 95%
Cc1c(-c2ccc(Cl)cn2)c(C(=O)N2CC[S+]([O-])C(C)(C)C2)n(C(C)C)c1C(F)(F)F (stereo not shown) [Example 130, [3-(5-Chloro-pyridin-2-yl)-1-isopropyl-4-methyl-5-(trifluoromethyl)-1H-pyrrol-2-yl]-(2,2-dimethyl-1-oxo-[1,4]thiazinan-4-yl)-methanone] | 40 to 75%
Cc1c(-c2ccc(Cl)cc2)c(C(=O)N2CCN(C(=O)NC(C)(C)C)CC2)n(C(C)C)c1C(F)(F)F [Example 131, N-tert-Butyl-4-[3-(4-chlorophenyl)-1-isopropyl-4-methyl-5-(trifluoromethyl)-1H-pyrrole-2-carbonyl]-piperazine-1-carboxylic acid amide] | 75 to 95%
Cc1c(-c2ccc(Cl)cc2)c(C(=O)N(C)C(CO)CC(C)C)n(C(C)C)c1C(F)(F)F (stereo not shown) [Example 132, 3-(4-Chlorophenyl)-N-[1-(hydroxymethyl)-3-methyl-butyl]-1-isopropyl-N,4-dimethyl-5-(trifluoromethyl)-1H-pyrrole-2-carboxylic acid amide] | 40 to 75%
Cc1c(-c2ccc(Cl)cc2)c(C(=O)N(C)C(C)C(=O)NC(C)(C)C)n(C(C)C)c1C(F)(F)F (stereo not shown) [Example 133, N-[1-(tert-Butyl-carbamoyl)-ethyl]-3-(4-chlorophenyl)-1-isopropyl-N,4-dimethyl-5-(trifluoromethyl)-1H-pyrrole-2-carboxylic acid amide] | 40 to 75%
Cc1c(-c2ccc(Cl)cn2)c(C(=O)N(C)C2CCNCC2(C)C)n(C(C)C)c1C(F)(F)F (stereo not shown) [Example 134, 3-(5-Chloro-pyridin-2-yl)-N-(3,3-dimethyl-piperidin-4-yl)-1-isopropyl-N,4-dimethyl-5-(trifluoromethyl)-1H-pyrrole-2-carboxylic acid amide] | 40 to 75%
Cc1c(-c2ccc(Cl)cc2)c(C(=O)N(C)C2CCNCC2(C)C)n(C(C)C)c1C(F)(F)F (stereo not shown) [Example 135, 3-(4-Chlorophenyl)-N-(3,3-dimethyl-piperidin-4-yl)-1-isopropyl-N,4-dimethyl-5-(trifluoromethyl)-1H-pyrrole-2-carboxylic acid amide] | 40 to 75%
